This note sets out measurements from publication PMC9837035 (Nature Communications, 2023).

Broadly, the IC50 is the concentration that gives 50% inhibition. As a reminder, the AUC(0-inf) is total exposure, with the tail of the curve extrapolated. Lower therefore signals low exposure. What is called Cmax is the peak of the concentration-time curve. Usually Tmax stands for the time from dosing to the highest level. One may read the half-life as the time in which the quantity being followed falls by half. A high value points to slow decline.

One data set has as its target PRMT5/MEP50 (Homo sapiens, UniProt O14744). Nature of the data set: biochemical.
The target of another data set is T1, G9a (Homo sapiens, UniProt Q96KQ7).
T1 sequence (Q96KQ7 1-1210): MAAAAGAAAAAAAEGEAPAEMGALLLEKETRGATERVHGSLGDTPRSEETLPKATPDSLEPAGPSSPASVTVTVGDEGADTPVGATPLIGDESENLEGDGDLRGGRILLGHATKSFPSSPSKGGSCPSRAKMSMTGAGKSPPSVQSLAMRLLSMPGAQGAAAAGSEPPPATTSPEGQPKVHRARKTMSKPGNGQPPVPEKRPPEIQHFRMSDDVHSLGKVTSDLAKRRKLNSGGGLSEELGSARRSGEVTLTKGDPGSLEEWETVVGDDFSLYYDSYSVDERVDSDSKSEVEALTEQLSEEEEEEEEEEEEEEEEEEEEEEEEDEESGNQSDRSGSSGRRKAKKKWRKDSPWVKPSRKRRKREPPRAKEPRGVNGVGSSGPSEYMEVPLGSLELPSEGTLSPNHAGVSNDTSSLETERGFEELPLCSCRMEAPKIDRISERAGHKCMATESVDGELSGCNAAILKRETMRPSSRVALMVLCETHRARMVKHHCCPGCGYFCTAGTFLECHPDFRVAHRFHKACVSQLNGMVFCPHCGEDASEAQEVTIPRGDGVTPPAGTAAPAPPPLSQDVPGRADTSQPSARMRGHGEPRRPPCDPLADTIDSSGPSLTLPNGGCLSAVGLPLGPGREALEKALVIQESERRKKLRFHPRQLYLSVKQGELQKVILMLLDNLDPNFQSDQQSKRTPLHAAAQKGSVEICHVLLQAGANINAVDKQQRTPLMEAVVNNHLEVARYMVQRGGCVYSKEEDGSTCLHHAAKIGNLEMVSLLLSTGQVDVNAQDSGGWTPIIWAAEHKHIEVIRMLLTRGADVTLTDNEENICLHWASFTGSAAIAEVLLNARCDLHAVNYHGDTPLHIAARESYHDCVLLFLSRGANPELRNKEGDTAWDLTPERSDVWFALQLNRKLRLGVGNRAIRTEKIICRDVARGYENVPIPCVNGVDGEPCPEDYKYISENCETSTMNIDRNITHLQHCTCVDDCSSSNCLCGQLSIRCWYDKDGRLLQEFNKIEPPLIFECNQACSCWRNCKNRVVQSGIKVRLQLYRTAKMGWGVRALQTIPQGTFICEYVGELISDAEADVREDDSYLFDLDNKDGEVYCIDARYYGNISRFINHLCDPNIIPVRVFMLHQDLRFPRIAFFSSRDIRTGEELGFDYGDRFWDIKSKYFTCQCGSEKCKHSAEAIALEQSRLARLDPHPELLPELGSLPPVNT
Nature of the data set: Radioisotope-based methyltransferase assay (selectivity). The conditions noted are these: 1 μM SAM.

Another data set deals with DNMT1 (Homo sapiens, UniProt P26358). Described as above. To be noted: IC50, DNMT1, 1 μM SAM.
A short description of data set [1]: Pharmacokinetic (PK) assay. The class given is in vivo, mice. The procedure:
PK studies were performed using 8-week-old male Crl:CD1 ICR mice in accordance with the animal experimental protocol, and procedures were approved by the Animal Care and Ethics Committee of Sekisui Medical. […] […] RK-701 in samples were analyzed by liquid chromatography-tandem mass spectrometry (LC–MS/MS) after deproteinization with acetonitrile. […] PK parameters were calculated using the program Phenix WinNolin (Certara).
The LC-MS/MS system comprised of ACQUITY Ultra Performance LC (Waters) and 4000 QTRAP (Sciex). Acquity UPLC BEH C18 (2.1 × 50 mm, 1.7 μm, Waters) was used as analytical column. The mobile phase consisted of 0.1% formic acid in water (mobile phase A) and acetonitrile (mobile phase B) at a total flow rate of 0.5 mL/min with a column temperature of 40 °C. The chromatographic separation was achieved using gradient elution. The gradient program was: 20% B from 0.0–0.1 min, 20–95% B from 0.1–1.5 min, 95–95% B from 1.5–2.0 min, and 20% B from 2.01–3.0 min. The MS/MS instrument was operated in positive-ion mode with an ion spray voltage of 4200 V, entrance potential of 10 V and source temperature at 600 °C. The curtain gas was set at 12 psi, ion source gas 1 at 40 psi, ion source gas 2 at 50 psi. […] Data acquisition and quantitation were performed by using Analyst (ver.1.4.3, Sciex).

In another data set the target is NSD2 (T1150A) (Homo sapiens, UniProt O96028, T1150A). Nature of the data set: Radioisotope-based methyltransferase assay (selectivity).
Chain of NSD2 (T1150A) (O96028 whole entry T1150A): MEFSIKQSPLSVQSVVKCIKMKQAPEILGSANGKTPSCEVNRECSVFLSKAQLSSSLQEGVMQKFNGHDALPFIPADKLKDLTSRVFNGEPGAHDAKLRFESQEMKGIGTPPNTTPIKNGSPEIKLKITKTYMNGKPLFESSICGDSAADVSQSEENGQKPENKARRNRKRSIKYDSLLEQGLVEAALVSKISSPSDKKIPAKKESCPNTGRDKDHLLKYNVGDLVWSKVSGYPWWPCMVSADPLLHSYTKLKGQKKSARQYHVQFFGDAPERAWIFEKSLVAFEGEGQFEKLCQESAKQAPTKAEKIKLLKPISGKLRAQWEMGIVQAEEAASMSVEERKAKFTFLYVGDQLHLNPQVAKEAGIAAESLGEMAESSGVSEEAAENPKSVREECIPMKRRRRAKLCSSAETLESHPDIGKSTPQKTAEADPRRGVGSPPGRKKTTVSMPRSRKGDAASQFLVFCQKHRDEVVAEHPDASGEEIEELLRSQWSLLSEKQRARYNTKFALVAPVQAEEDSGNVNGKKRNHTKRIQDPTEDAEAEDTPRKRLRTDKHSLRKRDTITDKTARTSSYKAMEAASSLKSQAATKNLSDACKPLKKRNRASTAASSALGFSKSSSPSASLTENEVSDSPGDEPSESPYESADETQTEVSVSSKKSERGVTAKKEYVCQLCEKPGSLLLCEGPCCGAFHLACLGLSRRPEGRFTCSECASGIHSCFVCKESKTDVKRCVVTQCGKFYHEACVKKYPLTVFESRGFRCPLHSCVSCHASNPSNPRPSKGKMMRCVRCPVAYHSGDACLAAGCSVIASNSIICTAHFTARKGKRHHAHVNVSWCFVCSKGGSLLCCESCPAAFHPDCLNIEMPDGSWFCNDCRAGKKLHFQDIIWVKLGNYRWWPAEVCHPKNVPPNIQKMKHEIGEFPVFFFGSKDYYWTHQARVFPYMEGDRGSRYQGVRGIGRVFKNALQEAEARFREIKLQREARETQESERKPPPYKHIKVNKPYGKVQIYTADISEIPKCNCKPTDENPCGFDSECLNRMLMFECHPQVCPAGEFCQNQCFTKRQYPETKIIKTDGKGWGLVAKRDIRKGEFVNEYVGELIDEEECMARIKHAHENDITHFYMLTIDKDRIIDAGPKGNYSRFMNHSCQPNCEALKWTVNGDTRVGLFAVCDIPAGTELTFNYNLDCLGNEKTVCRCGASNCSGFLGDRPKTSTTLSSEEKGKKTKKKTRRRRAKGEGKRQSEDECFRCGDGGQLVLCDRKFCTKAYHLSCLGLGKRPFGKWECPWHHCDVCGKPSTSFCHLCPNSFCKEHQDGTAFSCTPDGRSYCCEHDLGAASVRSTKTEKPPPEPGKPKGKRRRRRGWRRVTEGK
In data set [2] the target is MLL4.
The next data set has as its target PRMT7 (Homo sapiens, UniProt Q9NVM4).
For another data set, the target named is EZH2 (Y641F) (Homo sapiens, UniProt Q15910, Y641F). The experiment in a line: Radioisotope-based methyltransferase assay (selectivity).
Chain of EZH2 (Y641F) (Q15910 whole entry Y641F): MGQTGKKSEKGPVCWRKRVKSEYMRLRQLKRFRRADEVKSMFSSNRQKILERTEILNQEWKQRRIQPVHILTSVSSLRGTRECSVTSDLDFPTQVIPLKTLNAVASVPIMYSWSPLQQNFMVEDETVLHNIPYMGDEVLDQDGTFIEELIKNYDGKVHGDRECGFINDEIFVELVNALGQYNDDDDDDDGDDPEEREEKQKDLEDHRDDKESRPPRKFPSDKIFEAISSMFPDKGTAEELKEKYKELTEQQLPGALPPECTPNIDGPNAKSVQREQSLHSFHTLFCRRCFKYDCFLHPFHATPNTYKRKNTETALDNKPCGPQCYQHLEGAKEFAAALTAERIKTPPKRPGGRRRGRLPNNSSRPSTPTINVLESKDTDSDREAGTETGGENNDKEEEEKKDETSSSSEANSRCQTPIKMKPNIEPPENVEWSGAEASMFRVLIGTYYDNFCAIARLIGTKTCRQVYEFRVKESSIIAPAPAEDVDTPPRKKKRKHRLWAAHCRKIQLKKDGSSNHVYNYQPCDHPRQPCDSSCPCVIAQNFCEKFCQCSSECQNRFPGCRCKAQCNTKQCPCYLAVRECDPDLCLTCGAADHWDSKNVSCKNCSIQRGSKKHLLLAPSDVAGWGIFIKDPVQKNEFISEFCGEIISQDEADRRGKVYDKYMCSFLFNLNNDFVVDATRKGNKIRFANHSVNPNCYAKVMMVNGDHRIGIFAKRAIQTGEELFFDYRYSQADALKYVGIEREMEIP
Chain of EZH2 (Y641F) (O75530 whole entry partner): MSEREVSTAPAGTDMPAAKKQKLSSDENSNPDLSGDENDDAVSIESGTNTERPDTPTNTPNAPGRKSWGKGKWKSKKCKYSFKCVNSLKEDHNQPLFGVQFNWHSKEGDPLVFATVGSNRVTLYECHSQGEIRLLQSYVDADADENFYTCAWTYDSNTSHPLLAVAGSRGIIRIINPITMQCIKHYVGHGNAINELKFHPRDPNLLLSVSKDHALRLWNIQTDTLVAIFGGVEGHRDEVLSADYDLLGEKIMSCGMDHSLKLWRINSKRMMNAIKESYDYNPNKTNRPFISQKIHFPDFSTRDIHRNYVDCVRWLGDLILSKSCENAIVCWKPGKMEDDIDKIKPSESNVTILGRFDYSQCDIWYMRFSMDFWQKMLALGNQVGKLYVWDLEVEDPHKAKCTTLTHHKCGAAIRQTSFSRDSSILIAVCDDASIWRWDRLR
Chain of EZH2 (Y641F) (Q15022 whole entry partner): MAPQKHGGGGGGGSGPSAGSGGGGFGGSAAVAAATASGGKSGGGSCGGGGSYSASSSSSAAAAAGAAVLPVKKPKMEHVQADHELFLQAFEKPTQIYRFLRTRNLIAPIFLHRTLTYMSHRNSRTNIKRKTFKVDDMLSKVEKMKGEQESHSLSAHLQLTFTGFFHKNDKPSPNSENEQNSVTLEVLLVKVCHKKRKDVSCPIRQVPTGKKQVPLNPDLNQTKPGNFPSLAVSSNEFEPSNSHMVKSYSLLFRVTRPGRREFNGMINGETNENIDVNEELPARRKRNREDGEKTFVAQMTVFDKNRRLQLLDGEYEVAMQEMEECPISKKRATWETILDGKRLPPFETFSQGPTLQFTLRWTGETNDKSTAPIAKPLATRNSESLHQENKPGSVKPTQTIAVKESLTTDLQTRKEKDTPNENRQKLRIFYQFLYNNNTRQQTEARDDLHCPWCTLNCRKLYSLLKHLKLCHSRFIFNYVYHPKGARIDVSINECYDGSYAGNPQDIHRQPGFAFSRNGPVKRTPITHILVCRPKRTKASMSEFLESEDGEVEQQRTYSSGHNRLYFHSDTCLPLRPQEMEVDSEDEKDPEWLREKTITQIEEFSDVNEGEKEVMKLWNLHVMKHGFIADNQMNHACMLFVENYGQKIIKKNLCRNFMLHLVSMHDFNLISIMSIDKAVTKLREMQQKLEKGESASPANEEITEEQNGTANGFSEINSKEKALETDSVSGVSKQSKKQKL
Chain of EZH2 (Y641F) (Q09028 whole entry partner): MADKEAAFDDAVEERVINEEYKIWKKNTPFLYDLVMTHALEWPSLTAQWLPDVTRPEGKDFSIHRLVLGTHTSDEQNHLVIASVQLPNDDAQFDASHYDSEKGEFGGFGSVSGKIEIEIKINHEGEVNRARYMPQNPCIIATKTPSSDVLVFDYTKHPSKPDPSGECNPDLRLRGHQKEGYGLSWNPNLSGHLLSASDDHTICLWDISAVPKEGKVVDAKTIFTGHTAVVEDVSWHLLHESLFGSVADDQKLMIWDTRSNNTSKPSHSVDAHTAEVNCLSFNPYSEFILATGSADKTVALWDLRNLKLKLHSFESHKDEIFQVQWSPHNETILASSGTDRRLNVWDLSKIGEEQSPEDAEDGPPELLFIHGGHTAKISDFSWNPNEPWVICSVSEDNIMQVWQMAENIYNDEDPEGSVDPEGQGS
Chain of EZH2 (Y641F) (Q6ZN18 whole entry partner): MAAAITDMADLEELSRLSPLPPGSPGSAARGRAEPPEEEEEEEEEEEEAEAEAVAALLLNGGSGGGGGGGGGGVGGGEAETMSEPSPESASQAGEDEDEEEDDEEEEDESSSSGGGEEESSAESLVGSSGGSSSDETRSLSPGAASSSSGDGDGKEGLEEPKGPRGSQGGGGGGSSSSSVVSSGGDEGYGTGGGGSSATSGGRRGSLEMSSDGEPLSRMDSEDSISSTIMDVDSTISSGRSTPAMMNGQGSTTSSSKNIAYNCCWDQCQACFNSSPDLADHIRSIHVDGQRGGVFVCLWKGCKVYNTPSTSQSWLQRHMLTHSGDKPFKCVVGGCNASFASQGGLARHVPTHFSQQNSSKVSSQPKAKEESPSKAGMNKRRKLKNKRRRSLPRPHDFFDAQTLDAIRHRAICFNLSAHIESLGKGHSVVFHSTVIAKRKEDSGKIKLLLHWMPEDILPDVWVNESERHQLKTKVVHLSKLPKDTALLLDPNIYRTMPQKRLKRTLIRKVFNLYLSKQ
The target in data set [3] is MLL4 (Homo sapiens, UniProt Q9UMN6).
Where [4] appears, read: male, Crl:CD1 ICR, mouse, ip, mice, plasma, single intraperitoneal 25 mg/kg.

Several values for one entry are separate records, joined by “and”; a condition that tells them apart may be missing. Equal values may be shown once. Read-outs that look alike come from different tables or passages of the source.

Chain of PRMT7 (Q9NVM4 whole entry): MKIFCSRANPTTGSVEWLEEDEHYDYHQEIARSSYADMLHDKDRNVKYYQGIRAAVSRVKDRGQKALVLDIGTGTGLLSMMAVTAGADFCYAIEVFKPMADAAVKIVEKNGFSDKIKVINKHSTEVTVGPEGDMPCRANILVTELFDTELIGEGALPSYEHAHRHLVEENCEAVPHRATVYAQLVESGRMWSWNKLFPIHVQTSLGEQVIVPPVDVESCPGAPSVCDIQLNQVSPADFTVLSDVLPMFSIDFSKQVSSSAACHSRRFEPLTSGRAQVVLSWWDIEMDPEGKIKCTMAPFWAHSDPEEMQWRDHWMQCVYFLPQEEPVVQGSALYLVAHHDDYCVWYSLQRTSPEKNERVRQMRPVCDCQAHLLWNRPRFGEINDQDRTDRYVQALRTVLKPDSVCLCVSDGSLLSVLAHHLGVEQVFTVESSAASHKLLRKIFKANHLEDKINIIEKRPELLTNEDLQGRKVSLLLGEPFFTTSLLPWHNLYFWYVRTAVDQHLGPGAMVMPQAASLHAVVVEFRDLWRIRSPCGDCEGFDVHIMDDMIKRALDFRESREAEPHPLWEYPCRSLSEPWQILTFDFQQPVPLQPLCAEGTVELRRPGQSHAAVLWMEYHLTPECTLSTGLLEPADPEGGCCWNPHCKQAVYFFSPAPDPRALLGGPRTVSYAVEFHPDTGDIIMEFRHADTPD

Take `Cc1c(C(=O)NC(CCC2CC2)C(=O)Nc2ccc(C#N)cc2)[nH]c2c1C(=O)CC(C)(C)C2` (centres unmarked) [RK-701]: the half-maximal inhibitory concentration (IC50) on PRMT5/MEP50 was more than 100 µM; against G9a, 0.023 µM; at DNMT1, more than 100 µM; at NSD2 (T1150A) it was more than 100 µM; against MLL4 [2], more than 100 µM; against PRMT7 it was more than 100 µM. Besides, the IC50 against EZH2 (Y641F) is more than 100 µM. For the same compound, the concentration at 1 h in data set [1] (Time 1 h, read-out: concentration (pharmacokinetic properties)) was 17.9827 µM and 11.6451 µM; in data set [1] (Time 2 h, read-out: concentration (pharmacokinetic properties)), 17.6692 µM and 34.4874 µM; in data set [1] (Time 4 h, read-out: concentration (pharmacokinetic properties)) it was 51.2832 µM and 42.7733 µM; in [1] (Time 8 h, read-out: concentration (pharmacokinetic properties)), 20.155 µM and 23.2902 µM; in [1] (male, Crl:CD1 ICR, mouse, plasma, intraperitoneal, 25 mg/kg, Time 1 h, read-out: concentration (pharmacokinetic properties)) it was 9.2 µM. This compound had an AUC(0-inf) in data set [1] (setting [4]) of 418 ± 7 µM·h. In data set [1] (setting [4]), this compound registered a Cmax of 42.4 µM. Also, the Tmax in data set [1] (setting [4]) is 4 h. The compound also gave a half-life in data set [1] (setting [4]) of 1.4 ± 0.1 h. Further, the concentration at 2 h in data set [1] (male, Crl:CD1 ICR, mouse, plasma, intraperitoneal, 25 mg/kg, Time 2 h, read-out: concentration (pharmacokinetic properties)) was 25.8 µM. The concentration at 4 h in [1] (male, Crl:CD1 ICR, mouse, plasma, intraperitoneal, 25 mg/kg, Time 4 h, read-out: concentration (pharmacokinetic properties)) is 33.1 µM. Besides, the concentration at 8 h in data set [1] (male, Crl:CD1 ICR, mouse, plasma, intraperitoneal, 25 mg/kg, Time 8 h, read-out: concentration (pharmacokinetic properties)) amounted to 28.2 µM.

On to `Nc1ncnc2c1ncn2[C@@H]1O[C@H](CSCC[C@H](N)C(=O)O)[C@@H](O)[C@H]1O` [SAH, S-(5'-Adenosyl)-L-homocysteine, reference compound], for which half-maximal inhibition against MLL4 [3] (IC50) required 1.13 µM.
